Reference: article PMC9684503 (Communications Biology, 2022)
Several values for one entry are separate records, joined by “and”; a condition that tells them apart may be missing. Equal entries are not always repeated. Structures can show the parent of a compound that is named as a salt. Where two headings read alike, the source gives them in different places.

How the values were obtained:
rat VMAT2-His = molecular target: T1, rat VMAT2-His (Rattus norvegicus, UniProt Q01827); test: Differential scanning fluorimetry (DSF) with CPM dye: change of melting temperature of purified VMAT2; format: binding; conditions: for ΔTm at 12 µM: compound 0,12 µM; for ΔTm at 37 µM: compound 0,37 µM; for ΔTm at 10 µM: compound 10 µM; for ΔTm at 30 µM: compound 30 µM; for ΔTm at 90 µM: compound 90 µM; for ΔTm at 270 µM: compound 270 µM
T1 construct: The ORF of rat VMAT2 was subcloned into a pFastBac vector; His; made in house; host or cells: Sf9 insect cells (baculovirus)
Protocol: To screen purified VMAT2 by DSF we expressed the rat VMAT2 protein, as VMAT2-His, in SF9 insect cells using the baculovirus expression system. The transporter was solubilized and purified in n-Dodecyl-β-D-maltoside (DDM)/cholesterol hemisuccinate (CHS) micelles by immobilized metal affinity chromatography (IMAC) and size exclusion chromatography (SEC). […] Screening was performed using DSF and the thiol-reactive dye 7-diethylamino-3-(4-maleimidophenyl)-4-methylcoumarin (CPM), an approach that monitors changes to the protein melting temperature (Tm) upon compound binding. Using CPM or other dyes, DSF-based assays have successfully been used in molecular-based screenings[34],[35]. […] DSF screening was performed in 384 well plates using the thiol-sensing dye 7-diethylamino-3-(4-maleimidophenyl)-4-methylcoumarin (CPM) (Merck). […] Protein melting curves were determined using a LightCycler 480 ii RT-PCR system (Roche), with a temperature ramp increasing from 25 to 95 °C at a rate of 2 °C/min. Data analysis was performed using an in-house software that automatically determines the protein midpoint melting temperature (Tm) based on the second derivative of the melting curves or using the HTSDSF explorer as described in ref. [58]. […] 6 μl of this mix was dispensed to each well of 384 well plates using a Multidrop™ Combi Reagent Dispenser (Thermo Scientific). […] All initial hits were then subjected to an initial validation in triplicates with a compound concentration of 200 μM and a ΔTm > 5× the standard deviation (SD) cut off. […] Processing of the data from the primary screening and the concentration-dependent validation was performed as reported.

VMAT2 [1] = molecular target: T2, VMAT2 (Rattus norvegicus, UniProt Q01827); conditions: 50 µM
Protocol: (§1) We preincubated cells expressing VMAT2 with 50 μM compounds and measured [^3H]-DTBZ binding (5 nM) to the sample (Fig. 3a). […] Hek293 cells were grown and transfected with pcDNA3.1 VMAT2-His as described above. Two days after transfection, cells were harvested, washed and transferred to 96 well MultiScreen FB filter plates (Millipore). […] Cells were washed 3 times with ice cold PBS and 50 µl Ultima Gold LLL (PerkinElmer) was added to each well. […] After a 20 min incubation at 37 °C, cells were washed and [^3H] scintillation counting was performed as described above.

rat VMAT2 = rat VMAT2 (Rattus norvegicus, UniProt Q01827); test: FFN206 uptake assay in transfected Hek293 cells
VMAT2 [2] = molecular target: T2, VMAT2; test: [3H]-DTBZ competition assay in Hek293 cells expressing VMAT2; conditions: 50 μM compound;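 note: HEK293 cells transfected with VMAT2, pretreated 30 min with compound, then given 5 nM [3H]-DTBZ for 20 min at 37 °C, bound label read by scintillation counting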
Protocol: as §1

[3] = Table 1, DSF screening, mean ± SD of triplicates
[4] = Table S2 dose response, read-out: ΔTm
[5] = Table S2 dose response, compound 1,11 µM, read-out: ΔTm
[6] = Table S2 dose response, compound 3,33 µM, read-out: ΔTm

T2 sequence (Q01827 whole entry): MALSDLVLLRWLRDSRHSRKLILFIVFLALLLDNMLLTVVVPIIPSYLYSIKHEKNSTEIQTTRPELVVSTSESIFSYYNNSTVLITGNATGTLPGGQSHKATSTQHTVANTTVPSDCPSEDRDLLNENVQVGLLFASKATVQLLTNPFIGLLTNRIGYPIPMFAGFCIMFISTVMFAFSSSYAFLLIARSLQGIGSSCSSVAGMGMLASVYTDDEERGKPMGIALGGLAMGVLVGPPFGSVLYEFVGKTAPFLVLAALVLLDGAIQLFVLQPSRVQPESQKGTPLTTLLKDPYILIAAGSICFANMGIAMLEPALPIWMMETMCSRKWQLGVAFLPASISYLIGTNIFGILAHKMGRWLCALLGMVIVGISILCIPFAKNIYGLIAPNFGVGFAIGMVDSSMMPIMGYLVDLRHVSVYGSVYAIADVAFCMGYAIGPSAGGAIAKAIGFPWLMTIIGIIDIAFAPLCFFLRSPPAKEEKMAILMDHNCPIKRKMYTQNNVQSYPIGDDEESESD
T1 sequence (Q01827 whole entry): as above
Sequence of rat VMAT2 (Q01827 whole entry): as above

| SMILES | ΔTm (rat VMAT2-His; [3]) [oC] | ΔTm at 12 µM (rat VMAT2-His; [4]) [°C] | ΔTm at 37 µM (rat VMAT2-His; [4]) [°C] | ΔTm at 10 µM (rat VMAT2-His; [4]) [°C] | ΔTm at 30 µM (rat VMAT2-His; [4]) [°C] | ΔTm at 90 µM (rat VMAT2-His; [4]) [°C] | ΔTm at 270 µM (rat VMAT2-His; [4]) [°C] | ΔTm at 11 µM (rat VMAT2-His; [5]) [°C] | ΔTm at 33 µM (rat VMAT2-His; [6]) [°C] | activity (VMAT2 [1]; hek293 cells) [%] | IC50 (rat VMAT2) [µM] | VMAT2-specific FFN206 uptake relative to DMSO (=1), replicate samples (rat VMAT2; Fig. 2a source data, 25 μM compound) | inhibition at 25 µM (rat VMAT2; HEK293, read-out: inhibitory effect on VMAT2 activity) [%] | effect on [3H]-DTBZ binding compared with DMSO control (one-way ANOVA, p < 0.001) (VMAT2 [2]) | ΔTm (rat VMAT2-His; [5]) [°C] | ΔTm (rat VMAT2-His; [6]) [°C] | activity (VMAT2 [1]) [%] | IC50 (rat VMAT2; read-out: IC50, rat VMAT2, Table S1, substrate uptake assays in transfected Hek293 cells) [µM] |
| --- | --- | --- | --- | --- | --- | --- | --- | --- | --- | --- | --- | --- | --- | --- | --- | --- | --- | --- |
| COc1ccc2[nH]c([S+]([O-])Cc3ncc(C)c(OC)c3C)nc2n1 (stereo not drawn) [Tenatoprazole] | 7.36 ± 0.41 | 0.38 | 0.24 | 4.77 | 6.25 | 6.56 | 6.79 | 1.3 | 4.85 | 87.5 ± 8.53 | > 10 | 0.8521 and 0.6659 and 1.063 and 0.8968 | ≤ 50 | no statistically significant effect | – | – | – | – |
| CCCNCC(O)COc1ccccc1C(=O)CCc1ccccc1 (stereo not drawn) [Propafenone, Propafenone hydrochloride] | 4.53 ± 0.18 | – | 0.99 | 1.65 | 2.63 | 3.49 | 4.45 | – | – | – | – | – | – | statistically significantly effect | 1.22 | 1.22 | 60.7 ± 20.8 | – |
| C=CCOc1ccccc1OCC(O)CNC(C)C (stereo not drawn) [Oxprenolol, Oxprenolol hydrochloride] | – | – | – | – | – | – | – | – | – | – | 6.55 ± 3.49 | – | – | – | – | – | – | – |
| CC(C)NCC(O)COc1ccc(COCCOC(C)C)cc1 (stereo not drawn) [Bisoprolol] | 1.49 ± 0.05 | – | – | – | – | – | – | – | – | – | 3.17 ± 0.895 | – | – | – | – | – | – | – |
| CCN(CC)CCCC(C)Nc1ccnc2cc(Cl)ccc12 (stereo not drawn) [Chloroquine] | – | – | – | – | – | – | – | – | – | 85.1 ± 11.3 | > 10 | – | – | no statistically significant effect | – | – | – | – |
| C1CCC(C(CC2CCCCN2)C2CCCCC2)CC1 (stereo not drawn) [Perhexiline maleate] | – | – | – | -0.18 | -0.27 | -1.17 | -3.23 | – | – | – | – | – | – | – | – | – | – | – |
| CCCC(=O)Nc1ccc(OCC(O)CNC(C)C)c(C(C)=O)c1 (stereo not drawn) [Acebutolol, Acebutolol hydrochloride] | 2.14 ± 0.05 | 0.2 | 0.03 | 0.2 | 0.31 | 0.33 | 0.9 | 0.3 | 0.03 | – | > 10 | – | – | – | – | – | – | < 10 |
